Results published in ChEMBL document CHEMBL1154250, “Isolation and characterization of peptides from Momordica cochinchinensis seeds” (J Nat Prod, 2009).
Activity calls are given as the source filed them. The rule behind the calls is not given here. Positions of bridges follow the written chain, without caps; N, C: chain ends. Residues, ends and D or L forms follow the SMILES beside them.

Experiments:
Helicoverpa armigera = assay: Insecticidal activity against Helicoverpa armigera larvae assessed as decrease in weight at 0.825 umol after 96 hrs; assay type: functional, organism-based
[1] = Inhibition of trypsin at 0.04 to 0.5 uM by UV-visible spectrophotometer
MM96L [2] = assay: Cytotoxicity against human MM96L cells assessed as survivality at 1.3 uM after 3 days by SRB assay; assay type: functional; conditions: 72 h, read-out: Survival
[3] = Cytotoxicity against human NFF cells assessed as survivality at 1.3 uM after 3 days by SRB assay; assay type: cell-based; conditions: read-out: Survival
[4] = Cytotoxicity against human NFF cells assessed as survivality at 2 uM after 3 days by SRB assay; assay type: cell-based; conditions: read-out: Survival
[5] = Toxicity in human erythrocytes assessed as hemolytic activity up to 50 uM after 1 hr; assay type: cell-based; conditions: erythrocyte
MM96L [6] = assay: Cytotoxicity against human MM96L cells assessed as survivality at 2 uM after 3 days by SRB assay; assay type: functional; conditions: 72 h, read-out: Survival

## CC[C@H](C)[C@@H]1NC(=O)CNC(=O)[C@H](C(C)C)NC(=O)CNC(=O)[C@@H]2CCCN2C(=O)[C@H]([C@@H](C)O)NC(=O)[C@H](C(C)C)NC(=O)[C@H]([C@@H](C)O)NC(=O)[C@@H]2CCCN2C(=O)[C@H](Cc2c[nH]c3ccccc23)NC(=O)[C@@H]2CSSC[C@@H]3NC(=O)[C@H](CCC(N)=O)NC(=O)[C@H](CCCCN)NC(=O)CNC(=O)[C@H](CCC(=O)O)NC(=O)[C@@H](NC(=O)CN)CSSC[C@H](NC(=O)CNC(=O)CNC(=O)CNC(=O)[C@H](CSSC[C@H](C(=O)N[C@@H](CO)C(=O)N[C@@H](CO)C(=O)N[C@@H](CO)C(=O)O)NC1=O)NC(=O)[C@H](CO)NC(=O)[C@H](CCCNC(=N)N)NC(=O)[C@H](Cc1ccccc1)NC(=O)[C@H](CC(C)C)NC(=O)CNC3=O)C(=O)N[C@@H](CCCNC(=N)N)C(=O)N2
Helicoverpa armigera
  Activity: inactive
[1]
  inhibition: inactive

## CC[C@H](C)[C@@H]1NC(=O)CNC(=O)[C@H](C(C)C)NC(=O)CNC(=O)[C@@H]2CCCN2C(=O)[C@H]([C@@H](C)O)NC(=O)[C@H](C(C)C)NC(=O)[C@H]([C@@H](C)O)NC(=O)[C@@H]2CCCN2C(=O)[C@H](Cc2c[nH]c3ccccc23)NC(=O)[C@@H]2CSSC[C@@H]3NC(=O)[C@@H]4CCCN4C(=O)[C@H](CCCCN)NC(=O)CNC(=O)[C@H](CCC(=O)O)NC(=O)[C@@H](NC(=O)CN)CSSC[C@H](NC(=O)CNC(=O)CNC(=O)CNC(=O)[C@H](CSSC[C@@H](C(=O)N[C@@H](CO)C(=O)N[C@@H](CO)C(=O)N[C@@H](CO)C(=O)O)NC1=O)NC(=O)[C@H](CO)NC(=O)[C@H](CCCNC(=N)N)NC(=O)[C@H](Cc1ccccc1)NC(=O)[C@H](CC(C)C)NC(=O)CNC3=O)C(=O)N[C@@H](CCCNC(=N)N)C(=O)N2 (H-GCEGKPCGLFRSCGGGCRCWPTVTPGVGICSSS-OH; disulfide 2-17, 7-19, 13-30)
MM96L [2]
  viability at 1.3 µM: 51%
[3]
  viability at 72 h, 1.3 µM: 86%

## CC[C@H](C)[C@@H]1NC(=O)CNC(=O)[C@H](C(C)C)NC(=O)CNC(=O)[C@@H]2CCCN2C(=O)[C@H]([C@@H](C)O)NC(=O)[C@H](C(C)C)NC(=O)[C@H]([C@@H](C)O)NC(=O)[C@@H]2CCCN2C(=O)[C@H](Cc2c[nH]c3ccccc23)NC(=O)[C@@H]2CSSC[C@@H]3NC(=O)[C@H](CCC(N)=O)NC(=O)[C@H](CCCCN)NC(=O)CNC(=O)[C@H](CCC(=O)O)NC(=O)[C@@H](NC(=O)CN)CSSC[C@H](NC(=O)CNC(=O)CNC(=O)CNC(=O)[C@H](CSSC[C@@H](C(=O)N[C@@H](CO)C(=O)N[C@@H](CO)C(=O)N[C@@H](CO)C(=O)O)NC1=O)NC(=O)[C@H](CO)NC(=O)[C@H](CCCNC(=N)N)NC(=O)[C@H](Cc1ccccc1)NC(=O)[C@H](CC(C)C)NC(=O)CNC3=O)C(=O)N[C@@H](CCCNC(=N)N)C(=O)N2 [listing 1 of 2 here]
[4]
  viability at 72 h, 2 µM: 89%
[5]
  Activity: Non-toxic

## CC[C@H](C)[C@@H]1NC(=O)CNC(=O)[C@H](C(C)C)NC(=O)CNC(=O)[C@@H]2CCCN2C(=O)[C@H]([C@@H](C)O)NC(=O)[C@H](C(C)C)NC(=O)[C@H]([C@@H](C)O)NC(=O)[C@@H]2CCCN2C(=O)[C@H](Cc2c[nH]c3ccccc23)NC(=O)[C@@H]2CSSC[C@@H]3NC(=O)[C@H](CCC(N)=O)NC(=O)[C@H](CCCCN)NC(=O)CNC(=O)[C@H](CCC(=O)O)NC(=O)[C@@H](NC(=O)CN)CSSC[C@H](NC(=O)CNC(=O)CNC(=O)CNC(=O)[C@H](CSSC[C@@H](C(=O)N[C@@H](CO)C(=O)N[C@@H](CO)C(=O)N[C@@H](CO)C(=O)O)NC1=O)NC(=O)[C@H](CO)NC(=O)[C@H](CCCNC(=N)N)NC(=O)[C@H](Cc1ccccc1)NC(=O)[C@H](CC(C)C)NC(=O)CNC3=O)C(=O)N[C@@H](CCCNC(=N)N)C(=O)N2 [listing 2 of 2 here]
MM96L [6]
  viability at 2 µM: 57%
